Assay results published in the NIST ThermoML archive (doi:10.1021/je0342825).

Experiment: xn = mol fraction of the nth substance listed
Conditions: 101.3 kPa, Liquid

CC(=O)O [acetic acid] + CCO
Conditions	mass density, 293.15 K [kg/m3]	mass density, 298.15 K [kg/m3]	mass density, 303.15 K [kg/m3]	speed of sound, 293.15 K [m/s]	speed of sound, 298.15 K [m/s]	speed of sound, 303.15 K [m/s]	viscosity, 293.15 K [mPa·s]	viscosity, 298.15 K [mPa·s]	viscosity, 303.15 K [mPa·s]
x1 = 0.0493	803.5	799.15	794.78	1168	1151	1133	1.19	1.083	0.989
x1 = 0.1004	817.3	812.87	808.39	1173	1156	1139	1.195	1.089	0.994
x1 = 0.1992	844.8	840.2	835.58	1182	1165	1148	1.23	1.12	1.023
x1 = 0.2971	871.59	866.86	862.09	1190	1172	1155	1.276	1.162	1.06
x1 = 0.3962	898.37	893.5	888.6	1195	1177	1160	1.336	1.215	1.108
x1 = 0.4961	924.97	919.96	914.93	1197	1179	1162	1.383	1.258	1.152
x1 = 0.5981	951.75	946.59	941.42	1196	1178	1160	1.432	1.297	1.183
x1 = 0.7031	978.85	973.55	968.23	1192	1175	1157	1.444	1.31	1.198
x1 = 0.7973	1002.17	996.74	991.29	1184	1166	1149	1.419	1.291	1.181
x1 = 0.8979	1026.4	1020.84	1015.28	1171	1153	1136	1.338	1.225	1.126
x1 = 0.9515	1038.72	1033.11	1027.5	1161	1143	1126	1.275	1.172	1.084
x1 = 1	1049.3	1043.65	1038	1149	1132	1115	1.211	1.115	1.034

CC(=O)O [acetic acid] + CCOC(C)=O
Conditions	mass density, 293.15 K [kg/m3]	mass density, 298.15 K [kg/m3]	mass density, 303.15 K [kg/m3]	speed of sound, 293.15 K [m/s]	speed of sound, 298.15 K [m/s]	speed of sound, 303.15 K [m/s]	viscosity, 293.15 K [mPa·s]	viscosity, 298.15 K [mPa·s]	viscosity, 303.15 K [mPa·s]
x1 = 0.0697	907.35	901.3	895.2	1165	1143	1121	0.473	0.446	0.422
x1 = 0.0988	910.56	904.53	898.44	1166	1144	1122	0.485	0.458	0.433
x1 = 0.196	920.61	914.62	908.59	1166	1144	1123	0.523	0.493	0.465
x1 = 0.2944	931.46	925.5	919.49	1165	1144	1123	0.561	0.528	0.498
x1 = 0.3968	943.68	937.74	931.77	1165	1143	1123	0.617	0.577	0.541
x1 = 0.5007	957.31	951.4	945.46	1163	1142	1122	0.668	0.627	0.589
x1 = 0.5967	971.28	965.4	959.5	1162	1141	1121	0.731	0.684	0.642
x1 = 0.7	987.79	981.94	976.09	1159	1140	1120	0.817	0.762	0.714
x1 = 0.7989	1005.47	999.66	993.85	1157	1137	1119	0.912	0.848	0.792
x1 = 0.8993	1025.8	1020.06	1014.32	1153	1135	1117	1.052	0.975	0.91
x1 = 0.9493	1037.09	1031.4	1025.69	1152	1134	1116	1.113	1.031	0.958
x1 = 1	1049.3	1043.65	1038	1149	1132	1115	1.211	1.115	1.034

CC(=O)O [acetic acid] + CO
Conditions	mass density, 293.15 K [kg/m3]	mass density, 298.15 K [kg/m3]	mass density, 303.15 K [kg/m3]	speed of sound, 293.15 K [m/s]	speed of sound, 298.15 K [m/s]	speed of sound, 303.15 K [m/s]	viscosity, 293.15 K [mPa·s]	viscosity, 298.15 K [mPa·s]	viscosity, 303.15 K [mPa·s]
x1 = 0.0498	811.92	807.17	802.41	1133	1116	1100	0.626	0.583	0.543
x1 = 0.1006	831.39	826.6	821.79	1143	1127	1111	0.676	0.628	0.585
x1 = 0.2016	867.61	862.71	857.79	1162	1146	1130	0.784	0.729	0.678
x1 = 0.2995	899.77	894.77	889.74	1178	1161	1145	0.899	0.825	0.765
x1 = 0.401	929.99	924.88	919.75	1189	1172	1156	1.038	0.954	0.879
x1 = 0.4992	956.37	951.16	945.92	1196	1179	1162	1.161	1.062	0.975
x1 = 0.5996	980.68	975.36	970.01	1198	1181	1164	1.274	1.162	1.062
x1 = 0.6998	1001.88	996.46	991.01	1195	1178	1161	1.352	1.229	1.124
x1 = 0.7969	1020.24	1014.72	1009.19	1187	1170	1153	1.38	1.26	1.151
x1 = 0.9	–	1031.06	1025.45	–	1156	1138	–	1.224	1.126
x1 = 0.9555	1043.82	1038.2	1032.56	1162	1145	1128	1.283	1.177	1.088
x1 = 1	1049.3	1043.65	1038	1149	1132	1115	1.211	1.115	1.034

CC(=O)O [acetic acid] + COC(C)=O
x1 = 1
Conditions	mass density [kg/m3]	speed of sound [m/s]	viscosity [mPa·s]
293.15 K	1049.3	1149	1.211
298.15 K	1043.65	1132	1.115
303.15 K	1038	1115	1.034

CC(=O)O [acetic acid] + O
Conditions	mass density, 293.15 K [kg/m3]	mass density, 298.15 K [kg/m3]	mass density, 303.15 K [kg/m3]	speed of sound, 293.15 K [m/s]	speed of sound, 298.15 K [m/s]	speed of sound, 303.15 K [m/s]	viscosity, 293.15 K [mPa·s]	viscosity, 298.15 K [mPa·s]	viscosity, 303.15 K [mPa·s]
x1 = 0.0503	1019.37	1017.24	1014.94	1528	1533	1537	1.304	1.151	1.023
x1 = 0.1009	1034.95	1032.04	1029.02	1537	1536	1535	1.578	1.385	1.226
x1 = 0.2018	1053.88	1050	1046.07	1509	1502	1494	2.031	1.777	1.571
x1 = 0.3006	1063.42	1058.83	1054.2	1465	1454	1443	2.355	2.053	1.809
x1 = 0.4015	1068.15	1063.42	1058.66	1418	1405	1392	2.559	2.232	1.965
x1 = 0.5012	1069.68	1064.77	1059.78	1373	1359	1344	2.652	2.316	2.046
x1 = 0.6005	1068.8	1063.48	1058.24	1329	1314	1299	2.627	2.3	2.029
x1 = 0.7004	1066.55	1061.22	1055.91	1286	1270	1254	2.417	2.129	1.89
x1 = 0.8017	1062.78	1057.34	1051.9	1243	1226	1210	2.077	1.85	1.656
x1 = 0.8996	1057.35	1051.8	1046.25	1199	1183	1166	1.666	1.503	1.367
x1 = 0.9523	1053.56	1047.96	1042.35	1175	1157	1140	1.416	1.294	1.19
x1 = 1	1049.3	1043.65	1038	1149	1132	1115	1.211	1.115	1.034

CCO [ethanol] + CC(=O)O
x2 = 0
Conditions	mass density [kg/m3]	speed of sound [m/s]	viscosity [mPa·s]
293.15 K	789.75	1162	1.187
298.15 K	785.46	1145	1.082
303.15 K	781.15	1128	0.987

CCOC(C)=O [ethyl acetate] + CC(=O)O
x2 = 0
Conditions	mass density [kg/m3]	speed of sound [m/s]	viscosity [mPa·s]
293.15 K	900.52	1163	0.452
298.15 K	894.43	1140	0.426
303.15 K	888.3	1118	0.403

CO [methanol] + CC(=O)O
x2 = 0
Conditions	mass density [kg/m3]	speed of sound [m/s]	viscosity [mPa·s]
293.15 K	791.9	1121	0.585
298.15 K	787.2	1104	0.545
303.15 K	782.48	1088	0.508
